Earlier results in article PMC2362731, “Phase I study of Carzelesin (U-80,244) given (4-weekly) by intravenous bolus schedule” (British Journal of Cancer, 1999).

Experiments:
[1] = tested on: tumour cells cultured in vitro; design: method as in Li et al, 1992; conditions: compared with adozelesin; ref Li et al, 1992; cited from earlier work
[2] = tested on: bone marrow, kidney, liver and spleen; design: method as in EORTC-NDDO, 1992; conditions: ref EORTC-NDDO, 1992; cited from earlier work

CCN(CC)c1ccc2cc(C(=O)Nc3ccc4[nH]c(C(=O)N5C[C@@H](CCl)c6c5cc(OC(=O)Nc5ccccc5)c5[nH]cc(C)c65)cc4c3)oc2c1 [Carzelesin]
potency against tumour cells cultured in vitro [1]: less potent than adozelesin
organs in which toxicity occurred in preclinical studies [2]: bone marrow, kidney, liver and spleen
